In data set [1] the test system is HIV-1 core protein p24. Kind of data set: HIV-1 p24 assay (ELISA) in co-culture supernatants. Format: cell-based, Human immunodeficiency virus type 1 (HIV-1). The following applies: HIV-infected H9 cells treated with CCCP, co-cultured with MT2 target cells; supernatant. As to the method:
(§1) HIV-1 infected H9 cells were fluorescently labeled with MitoTracker Red CMXRos to stain mitochondria red, and with Hoechst 33342 to stain DNA blue according to the manufacturer's protocols (Molecular Probes). Uninfected MT2 target cells were labeled green by the expression of green fluorescent protein (GFP-MT2). Cells were co-cultured and imaged on a glass bottom 96-well plate (MatTek, Ashland, Mass.) in RPMI 1640 medium containing 10% heat-inactivated fetal calf serum, 2 mM L-glutamine, 100 U/ml penicillin and 100 μg/ml streptomycin (complete medium). Labeled HIV-1 infected H9 cells were washed 3 times with complete medium to remove any residual free virus and free dye. Washed cells were suspended in complete medium at a density of 5×10^5 cells/ml. 100 μl of this cell suspension, containing 50,000 cells, were plated into each well. 100,000 GFP-MT2 target cells in 100 μl were then added to each well, to give a ratio of 1:2 of infected to uninfected target cells. […]
(§2) For quantitation of syncytial formation and HIV p24 production, data are means±standard deviations of four independent experiments. […]
(§3) To confirm that mitochondria from HIV infected cells serve as viral reservoirs and carry the virus into the uninfected target cells, the present inventors quantitated viral infection and replication in the co-cultures by syncytia formation and viral antigen p24 production. […]

Data set [2] relates to HIV-1. Description: Live-cell fluorescence imaging of cell-to-cell transmission of HIV-1, pre-treated H9 cells co-cultured with GFP-MT2 target cells. Type of data set: cell-based, Human immunodeficiency virus type 1 (HIV-1). The conditions noted are these: FIG. 4C-3; for cell-to-cell spread of HIV-1, VS and syncytia formation: H9 cells pre-treated 3 hours (CCCP 10 μM, antimycin A 2.4 μM, oligomycin 2.4 μM), washed, co-cultured with GFP-MT2. As to the method: HIV-1 infected H9 cells were fluorescently labeled with MitoTracker Red CMXRos to stain mitochondria red, and with Hoechst 33342 to stain DNA blue according to the manufacturer's protocols (Molecular Probes). Uninfected MT2 target cells were labeled green by the expression of green fluorescent protein (GFP-MT2). Cells were co-cultured and imaged on a glass bottom 96-well plate (MatTek, Ashland, Mass.) in RPMI 1640 medium containing 10% heat-inactivated fetal calf serum, 2 mM L-glutamine, 100 U/ml penicillin and 100 μg/ml streptomycin (complete medium). Labeled HIV-1 infected H9 cells were washed 3 times with complete medium to remove any residual free virus and free dye. Washed cells were suspended in complete medium at a density of 5×10^5 cells/ml. 100 μl of this cell suspension, containing 50,000 cells, were plated into each well. 100,000 GFP-MT2 target cells in 100 μl were then added to each well, to give a ratio of 1:2 of infected to uninfected target cells.
Live-cell real-time images and time lapse movies were collected at 37° C., 5% CO2 using a microplate incubator, with precision temperature, humidity and CO2 controls, mounted on the microscope stage of a Leica inverted microscope equipped with an automatic power stage and an AF6000 camera. Phase contrast, blue (Hoechst 33342), green (GFP), and red (MitoTracker) channels were used for imaging. Images were collected at 0.5 min or 5 min intervals for 18-24 hours. Image analysis was performed using LCSAF software.

The test system of data set [3] is HIV-1. Description: Syncytia formation assay in co-cultures of HIV-1 infected H9 cells with MT2 target cells. The following applies: Human immunodeficiency virus 1, H9, 3 h, HIV-infected H9 cells treated with 10 μM CCCP for 3 hours, then co-cultured with MT2 target cells. Type of data set: cell-based, Human immunodeficiency virus type 1 (HIV-1). As to the method:
as §1, with “cells/ml.” for “cells/ml. 100 μl of this cell suspension, containing 50,000 cells, were plated into each well. 100,000 GFP-MT2 target cells in 100 μl were then added to each well, to give a ratio of 1:2 of infected to uninfected target cells.”
Acute HIV infection of the target cells as a result of cell-to-cell transmission of the virus was measured by syncytia formation assay. Focal syncytium formation was scored under an inverted microscope.
as §2, §3

The subject of data set [4] is HIV-1 infected H9 cells. Kind of data set: Cell death of HIV-1 infected H9 cells on pre-treatment with mitochondrial inhibitors. The following applies: pre-treatment for 3 hours; CCCP 10 μM, antimycin A 2.4 μM, oligomycin 2.4 μM.
Procedure: To verify that functional mitochondria are essential for cell-to-cell transmission of the virus, we pre-treated HIV-1 infected H9 cells with mitochondrial inhibitors including carbonyl cyanide m-chlorophenylhydrazone (CCCP, 10 μM), antimycin A (2.4 μM), and oligomycin (2.4 μM) for 3 hours [14].
Data set [5] concerns human pancreatic cancer PANC-1 cells. The following applies: glucose-deprived conditions; cited from earlier work.

Entries after “also recorded” stand apart in the source; their conditions may differ.

`N#CC(C#N)=NNc1cccc(Cl)c1` [CCCP, carbonyl cyanide m-chlorophenylhydrazone]: in data set [1], the “reduction of p24 expression” value was “about 95%”. The “syncytia formation in fluorescent images” value in data set [2] (CCCP-treated HIV-1 infected H9 cells co-cultured with GFP-MT2 target cells) was “inhibits syncytia formation; also recorded: blocked syncytia formation”. The “cell-to-cell spread of HIV-1, VS and syncytia formation” value in data set [2] is “reduced cell-to-cell spread of HIV-1 and decreased VS and syncytia formation”. For the same compound, the inhibition (commonly the share of the control response that was lost under treatment) at 10 µM in data set [3] was ~95%. Moreover, the cell death result in data set [4] is on record as “no cell death”.

On to `CC[C@H]1/C=C/C=C/C[C@@H](C)[C@H](O)[C@@](C)(O)C(=O)[C@@H](C)[C@H](O)[C@@H](C)C(=O)[C@@H](C)[C@H](O)[C@@H](C)/C=C/C(=O)O[C@@H]2[C@H](C)[C@H](CC1)O[C@]1(CC[C@H](C)[C@H](C[C@@H](C)O)O1)[C@H]2C` [oligomycin], for which, in data set [2], the “cell-to-cell spread of HIV-1, VS and syncytia formation” value was “reduced cell-to-cell spread of HIV-1 and decreased VS and syncytia formation”. Also, the cell death result in data set [4] is “no cell death”.

For the compound antimycin A, in data set [2], the “cell-to-cell spread of HIV-1, VS and syncytia formation” value was “reduced cell-to-cell spread of HIV-1 and decreased VS and syncytia formation”. Moreover, in data set [4], the cell death result is listed as “no cell death”.

For efrapeptin F, the cytotoxicity result in data set [5] is given as “preferential cytotoxicity”.
